Laboratory results: US20240018161A1, “MODULATORS OF CYSTIC FIBROSIS TRANSMEMBRANE CONDUCTANCE REGULATOR” (VERTEX PHARMACEUTICALS INCORPORATED, priority 2020, published 2024)

Assays:
[1] = target: T1, CFTR-mediated short-circuit current in F508del/MF-HBE cells (Homo sapiens, UniProt P13569, DEL508-508); experiment: HBE assay: Ussing chamber assay of CFTR-mediated short-circuit currents; assay type: cell-based; conditions: for EC50 / HBE Max activity (%): F508del/MF-HBE cells, 18-24 hours incubation
T1 construct: human bronchial epithelial (HBE) cells derived from CF subjects; endogenous in cells; host or cells: primary human bronchial epithelial cells from CF subjects (F508del/MF-HBE)
Protocol: (§1) 1. Ussing Chamber Assay of CFTR-Mediated Short-Circuit Currents
(§2) Ussing chamber experiments were performed using human bronchial epithelial (HBE) cells derived from CF subjects heterozygous for F508del and a minimal function CFTR mutation (F508del/MF-HBE) and cultured as previously described (Neuberger T, Burton B, Clark H, Van Goor F Methods Mol Biol 2011:741:39-54). After four days the apical media was removed, and the cells were grown at an air liquid interface for >14 days prior to use.
(§3) To isolate the CFTR-mediated short-circuit (ISC) current, F508del/MF-HBE grown on Costar® Snapwell™ cell culture inserts were mounted in an Ussing chamber and the transepithelial ISC was measured under voltage-clamp recording conditions (Vhold=0 mV) at 37° C. The basolateral solution contained (in mM) 145 NaCl, 0.83 K2HPO4, 3.3 KH2PO4, 1.2 MgCl2, 1.2 CaCl2), 10 Glucose, 10 HEPES (pH adjusted to 7.4 with NaOH) and the apical solution contained (in mM) 145 NaGluconate, 1.2 MgCl2, 1.2 CaCl2, 10 glucose, 10 HEPES (pH adjusted to 7.4 with NaOH) and 30 μM amiloride to block the epithelial sodium channel. Forskolin (20 μM) was added to the apical surface to activate CFTR, followed by apical addition of a CFTR inhibitor cocktail consisting of BPO, GlyH-101, and CFTR inhibitor 172 (each at 20 μM final assay concentration) to specifically isolate CFTR currents. The CFTR-mediated ISC (μA/cm^2) for each condition was determined from the peak forskolin response to the steady-state current following inhibition.
(§4) 2. Identification of Corrector Compounds
(§5) The activity of the CFTR corrector compounds on the CFTR-mediated ISC was determined in Ussing chamber studies as described above. The F508del/MF-HBE cell cultures were either incubated with the corrector compounds at a range of concentrations in combination with 1 μM Ivacaftor or were incubated with the corrector compounds at a single fixed concentration of 10 μM in combination with 1 μM Ivacaftor for 18-24 hours at 37° C. and in the presence of 20% human serum. The concentration of corrector compounds with 1 μM Ivacaftor during the 18-24 hours incubations was kept constant throughout the Ussing chamber measurement of the CFTR-mediated ISC to ensure compounds were present throughout the entire experiment.
as §3, with “CaCl2,” for “CaCl2),”

[2] = target: T1, CFTR-mediated short-circuit current in F508del/MF-HBE cells; experiment: HBE2 assay: Ussing chamber assay of CFTR-mediated short-circuit currents; assay type: cell-based
Protocol: as §1, §2
as §3, with “CaCl2,” for “CaCl2),”
as §4
as §5, with “44 nM (6R,12R)-17-amino-12-methyl-6,15-bis(trifluoromethyl)-13,19-dioxa-3,4,18-triazatricyclo[12.3.1.12,5]nonadeca-1(18),2,4,14,16-pentaen-6-ol” for “1 μM Ivacaftor”, “1 and 3” for “10”, “[…]” for “20%”

T1 sequence (P13569 with tags, fused parts or gaps DEL508-508): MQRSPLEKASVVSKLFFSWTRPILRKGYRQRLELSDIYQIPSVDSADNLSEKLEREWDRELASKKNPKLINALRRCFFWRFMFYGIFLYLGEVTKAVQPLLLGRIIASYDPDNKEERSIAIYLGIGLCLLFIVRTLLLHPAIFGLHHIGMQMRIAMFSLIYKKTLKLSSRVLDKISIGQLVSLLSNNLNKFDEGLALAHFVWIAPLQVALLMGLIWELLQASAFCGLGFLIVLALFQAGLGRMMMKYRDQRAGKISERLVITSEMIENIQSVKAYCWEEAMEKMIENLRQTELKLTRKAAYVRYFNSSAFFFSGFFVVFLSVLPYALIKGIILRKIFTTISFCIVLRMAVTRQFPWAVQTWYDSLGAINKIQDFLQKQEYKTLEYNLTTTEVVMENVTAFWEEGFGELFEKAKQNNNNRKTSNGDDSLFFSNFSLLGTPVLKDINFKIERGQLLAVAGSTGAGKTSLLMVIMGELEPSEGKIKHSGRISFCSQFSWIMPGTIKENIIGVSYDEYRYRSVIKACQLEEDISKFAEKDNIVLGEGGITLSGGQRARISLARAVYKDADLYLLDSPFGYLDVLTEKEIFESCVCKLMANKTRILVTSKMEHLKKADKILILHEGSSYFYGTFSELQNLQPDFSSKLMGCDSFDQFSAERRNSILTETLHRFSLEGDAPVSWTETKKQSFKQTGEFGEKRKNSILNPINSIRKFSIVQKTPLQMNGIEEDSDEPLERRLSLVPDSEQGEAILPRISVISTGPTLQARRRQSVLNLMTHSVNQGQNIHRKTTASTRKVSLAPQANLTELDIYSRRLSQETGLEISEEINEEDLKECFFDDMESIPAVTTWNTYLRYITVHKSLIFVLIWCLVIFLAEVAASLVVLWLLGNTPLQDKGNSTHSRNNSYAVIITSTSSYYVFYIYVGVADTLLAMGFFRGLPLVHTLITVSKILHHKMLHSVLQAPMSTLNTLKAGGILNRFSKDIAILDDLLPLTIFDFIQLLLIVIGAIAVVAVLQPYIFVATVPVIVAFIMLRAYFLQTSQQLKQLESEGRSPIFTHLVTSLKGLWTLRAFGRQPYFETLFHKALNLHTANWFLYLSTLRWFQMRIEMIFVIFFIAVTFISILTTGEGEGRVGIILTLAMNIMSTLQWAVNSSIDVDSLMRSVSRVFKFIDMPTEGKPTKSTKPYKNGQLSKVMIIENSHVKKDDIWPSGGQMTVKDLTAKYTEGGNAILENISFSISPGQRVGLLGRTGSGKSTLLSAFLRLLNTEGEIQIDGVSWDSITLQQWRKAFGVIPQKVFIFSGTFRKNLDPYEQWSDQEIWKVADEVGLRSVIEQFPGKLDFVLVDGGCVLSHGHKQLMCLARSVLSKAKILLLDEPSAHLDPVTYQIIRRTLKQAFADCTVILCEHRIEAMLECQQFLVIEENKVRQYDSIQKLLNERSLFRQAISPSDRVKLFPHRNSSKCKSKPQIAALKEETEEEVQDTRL

Row | Structure (SMILES) | HBE2 Activity at 3 μM (%) [2] | activation at 3 µM [2] | further results
1 | Cc1cccc(C)c1-c1cc2nc(n1)NS(=O)(=O)c1cccc(c1)C(=O)N1[C@@H](c3ncc(OC(C)C)cn3)CC[C@@H](C(C)C)[C@H]1CO2 (single isomer, unassigned) [Compound 388, 13-(2,6-Dimethylphenyl)-4-(5-isopropoxypyrimidin-2-yl)-7-isopropyl-17,17-dioxo-10-oxa-17λ^6-thia-3,14,16,23-tetrazatetracyclo[16.3.1.111,15.03,8]tricosa-1(21),11,13,15(23),18(22),19-hexaen-2-one] |  |  | EC50 [1]: < 1000 nM; HBE Max activity (%) [1]: +++ (+++ is >60%)
2 | Cc1cccc(C)c1-c1cc2nc(n1)NS(=O)(=O)c1cccc(c1)C(=O)N1[C@@H](c3ncc(OC(C)C)cn3)CC[C@@H](C(C)C)[C@H]1CO2 (single isomer, unassigned) [Compound 389, 13-(2,6-dimethylphenyl)-4-(5-isopropoxypyrimidin-2-yl)-7-isopropyl-17,17-dioxo-10-oxa-17λ^6-thia-3,14,16,23-tetrazatetracyclo[16.3.1.111,15.03,8]tricosa-1(21),11,13,15(23),18(22),19-hexaen-2-one] |  |  | EC50 [1]: 1000 to 3000 nM; HBE Max activity (%) [1]: + (+ is <30+)
3 | Cc1cccc(C)c1-c1cc2nc(n1)NS(=O)(=O)c1cccc(c1)C(=O)N1[C@@H](c3cccc(N(C)C4CC5(CC5)C4)n3)CC[C@@H](C(C)C)[C@H]1CO2 (single isomer, unassigned) [Compound 390, 13-(2,6-dimethylphenyl)-7-isopropyl-4-[6-[methyl(spiro[2.3]hexan-5-yl)amino]-2-pyridyl]-17,17-dioxo-10-oxa-17λ^6-thia-3,14,16,23-tetrazatetracyclo[16.3.1.111,15.03,8]tricosa-1(21),11,13,15(23),18(22),19-hexaen-2-one] |  |  | HBE Activity at 10 μM (%) ([1]; at 10 μM): +++ (+++ is >60%)
4 | Cc1cccc(C)c1-c1cc2nc(n1)NS(=O)(=O)c1cccc(c1)C(=O)N1[C@@H](c3ncc(OC(C)C)cn3)CCC[C@@H](O2)[C@H]1CC(C)C (single isomer, unassigned) [Compound 407, 12-(2,6-dimethylphenyl)-21-isobutyl-20-(5-isopropoxypyrimidin-2-yl)-8,8-dioxo-15-oxa-8λ^6-thia-1,9,11,22-tetrazatetracyclo[14.4.1.13,7.110,14]tricosa-3,5,7(23),10(22),11,13-hexaen-2-one] | + (+ is <30+) |  | 
5 | Cc1cccc(C)c1-c1cc2nc(n1)NS(=O)(=O)c1cccc(c1)C(=O)N1[C@@H](c3ncc(OC(C)C)cn3)CCC[C@@H](O2)[C@H]1CC(C)C (single isomer, unassigned) [Compound 408, 12-(2,6-Dimethylphenyl)-21-isobutyl-20-(5-isopropoxypyrimidin-2-yl)-8,8-dioxo-15-oxa-8λ^6-thia-1,9,11,22-tetrazatetracyclo[14.4.1.13,7.110,14]tricosa-3,5,7(23),10(22),11,13-hexaen-2-one] | +++ (+++ is >60%) |  | 
6 | Cc1cccc(C)c1-c1cc2nc(n1)NS(=O)(=O)c1cccc(c1)C(=O)N1[C@@H](c3ncc(OC(C)C)cn3)CCC[C@@H](O2)[C@H]1CC(C)C (single isomer, unassigned) [Compound 409, 12-(2,6-dimethylphenyl)-21-isobutyl-20-(5-isopropoxypyrimidin-2-yl)-8,8-dioxo-15-oxa-8λ^6-thia-1,9,11,22-tetrazatetracyclo[14.4.1.13,7.110,14]tricosa-3,5,7(23),10(22),11,13-hexaen-2-one] | + (+ is <30+) |  | 
7 | Cc1cccc(C)c1-c1cc2nc(n1)NS(=O)(=O)c1cccc(c1)C(=O)N1[C@@H](c3cncc(N(C)C4CCC4)n3)CCC(O2)[C@H]1CC(C)C (single isomer, unassigned) [Compound 410] |  | > 60% | 
8 | Cc1cccc(C)c1-c1cc2nc(n1)NS(=O)(=O)c1cccc(c1)C(=O)N1[C@@H](c3cncc(N(C)C4CCC4)n3)CC[C@H](O2)[C@H]1CC(C)C (single isomer, unassigned) [Compound 411] |  | 30 to 60% | 
9 | Cc1cccc(C)c1-c1cc2nc(n1)NS(=O)(=O)c1cccc(c1)C(=O)N1[C@@H](c3ncc(OC(C)C)cn3)CC[C@@H](O2)[C@H]1CC(C)C [Compound 418] |  | < 30% | 
10 | Cc1cccc(C)c1-c1cc2nc(n1)NS(=O)(=O)c1cccc(c1)C(=O)N1[C@@H](c3ncc(OC(C)C)cn3)CCC[C@@H](O2)[C@H]1CC(C)C [Compound 421] | +++ (+++ is >60%) |  | 
11 | Cc1cccc(C)c1-c1cc2nc(n1)NS(=O)(=O)c1cccc(c1)C(=O)N1[C@@H](c3ncc(OC(C)C)cn3)CCC[C@@H](O2)[C@H]1CC(C)C [Compound 422] | + (+ is <30+) |  | 
12 | Cc1cccc(C)c1-c1cc2nc(n1)NS(=O)(=O)c1cccc(c1)C(=O)N1[C@@H](c3ncc(OC(C)C)cn3)CCC[C@H]1[C@H](CC(C)C)O2 [Compound 423] |  | 30 to 60% | 
13 | Cc1cccc(C)c1-c1cc2nc(n1)NS(=O)(=O)c1cccc(c1)C(=O)N1[C@@H](c3ncc(OC(C)C)cn3)CCC[C@H]1[C@@H](CC(C)C)O2 [Compound 424] |  | 30 to 60% | 
14 | Cc1cccc(C)c1-c1cc2nc(n1)NS(=O)(=O)c1cccc(c1)C(=O)N1[C@@H](c3cccc(N(C)C4CC5(CC5)C4)n3)CC[C@H]1[C@@H](CC(C)C)O2 [Compound 425] |  | 30 to 60% | 
15 | Cc1cccc(C)c1-c1cc2nc(n1)NS(=O)(=O)c1cccc(c1)C(=O)N1[C@@H](c3ncc(OC(C)C)cn3)CC[C@H](O2)[C@H]1CC(C)C [Compound 426] |  | 30 to 60% | 

The next lines start with results.

Row | HBE2 Activity at 3 μM (%) [2] | activation at 3 µM [2] | Structure (SMILES) | further results
16 |  | 30 to 60% | Cc1cccc(C)c1-c1cc2nc(n1)NS(=O)(=O)c1cccc(c1)C(=O)N1[C@H](CCC[C@@H]1C(=O)NCc1ccccc1)CO2 [Compound 415] | 
17 |  | 30 to 60% | Cc1cccc(C)c1-c1cc2nc(n1)NS(=O)(=O)c1cccc(c1)C(=O)N1C[C@@H](CCCC[C@@H]1c1ncc(OCc3ccccc3)cn1)O2 [Compound 416] | 
18 | + (+ is <30+) |  | Cc1cccc(C)c1-c1cc2nc(n1)NS(=O)(=O)c1cccc(c1)C(=O)N1C[C@@H](CCCC[C@@H]1c1ncc(OCc3ccccc3)cn1)O2 [Compound 417] | 
19 |  | 30 to 60% | Cc1cccc(C)c1-c1cc2nc(n1)NS(=O)(=O)c1cccc(c1)C(=O)N1[C@@H](CCCC[C@@H]1c1ncc(OCc3ccccc3)cn1)CO2 [Compound 419] | 
20 | + (+ is <30+) |  | Cc1cccc(C)c1-c1cc2nc(n1)NS(=O)(=O)c1cccc(c1)C(=O)N1[C@@H](CCCC[C@@H]1c1ncc(OCc3ccccc3)cn1)CO2 [Compound 420] | 
